Measured values: patent publication US9751919B2, “Antimicrobial compositions comprising a hyaluronic acid binding peptide and a β-lactam antibiotic” (priority 2012, dated 2017)
Entries after “also recorded” stand apart in the source; their conditions may differ.

Experiments:
[1] = tested on: E. cloacae; test: Checkerboard assay (FIC index); type: cell-based, Enterobacter cloacae; conditions: antibiotic combined with PEP35
Protocol: (§1) The checkerboard assays were carried out as described by Eliopoulos and Moellering (Chapter 9) in Antibiotic in Laboratory Medicine, Lorian Ed. 1996 as well as Bonapace et al. Diagnostic Microbiology and Infectious Diseases 2002; 44:363-366 and Bonapace et al. Diagnostic Microbiology and Infectious Diseases 2000; 38:43-50. In brief, checkerboard assays were performed in 96 well microtitre trays using an 8-by-8 well configuration. […] 96-well custom designed microtitre plates contained 100 ul/well of cation adjusted Mueller-Hinton broth (eg. for Enterobacteriaceae) with or without lysed horse blood (2-5% V/V) [eg. for S. pneumoniae] and were inoculated to achieve a final concentration of approximately 5×10^5 CFU/ml and incubated in ambient air for 24 hours prior to reading. Colony counts were performed periodically to confirm inocula. Quality control was performed every two weeks using a variety of ATCC QC organisms including; S. pneumoniae 49619, S. aureus 29213, E. faecalis 29212, E. coli 25922 and P. aeruginosa 27853. For all antimicrobials as well as PEP35, CLSI criteria was used.
(§2) The fractional inhibitory concentration index (FIC index) was used to interpret synergy, antagonism or additivity/indifference. FIC index=FIC of drug A+FIC of drug B where:
(§3) The FIC of drug A and drug B is calculated as follows, FIC drug A=MIC of drug A in combination/MIC of drug A alone and FIC of drug B=MIC of drug B in combination/MIC of drug B alone. Synergy is defined as FIC index ≦0.5, additivity/indifference FIC >0.5-4 and antagonism FIC index >4.
(§4) Antimicrobials used included PEP35, cefazolin, ceftriaxone, vancomycin, linezolid, tigecycline and daptomycin versus Gram-positive cocci and PEP35, gentamicin, levofloxacin, piperacillin/tazobactam, meropenem and colistin (Polymyxin E) versus Gram-negative bacilli. These agents were obtained as laboratory grade powders from their respective manufacturers. Stock solutions were prepared and dilutions made as described by the Clinical Laboratory Standards Institute (2005 CLSI).
(§5) Organisms included Gram-positive cocci (2 strains of each): Methicillin-susceptible Staphylococcus aureus (MSSA), community-associated (CA) and healthcare-associated (HA) methicillin-resistant Staphylococcus aureus (MRSA), vancomycin-intermediate Staphylococcus aureus (VISA), vancomycin-resistant Staphylococcus aureus (VRSA), methicillin-resistant Staphylococcus epidermidis (MRSE), Streptococcus pyogenes, Streptococcus agalactiae, Streptococcus pneumoniae, Enterococcus faecalis, Enterococcus faecium and vancomycin-resistant enterococcus (VRE). Gram-negative bacilli tested (2 strains of each) included: E. coli, Pseudomonas aeruginosa, Klebsiella pneumoniae, K. oxytoca, Enterobacter cloacae, P. mirabilis and Stenotrophomonas maltophilia. MIC testing, following two subcultures from frozen stock were determined by the CLSI 2005 approved broth microdilution method.

[2] = tested on: MRSA, VISA, VRSA and E. coli; test: Checkerboard assay, panel statement; type: cell-based
Protocol: Checkerboard assays were carried out as described by Bonapace et al.
as §1, with “Diagnostic” for “The checkerboard assays were carried out as described by Eliopoulos and Moellering (Chapter 9) in Antibiotic in Laboratory Medicine, Lorian Ed. 1996 as well as Bonapace et al. Diagnostic”, “2002; 44:363-366.” for “2002; 44:363-366 and Bonapace et al. Diagnostic Microbiology and Infectious Diseases 2000; 38:43-50.”, “27853. […] All peptides were assessed for synergy with β-lactams and vancomycin.” for “27853.”, “as the peptides,” for “as PEP35,”, “criteria were” for “criteria was”
as §2
as §3, with “was” for “is”, “additivity/indifference defined as a” for “additivity/indifference”, “between 0.5 and 4” for “>0.5-4”, “antagonism defined as an” for “antagonism”
The fractional inhibitory concentration index (FIC index) was used to interpret synergy, antagonism or additivity/indifference. FIC index=FIC of drug A+FIC of drug B where the FIC of drug A and drug B was calculated as follows, FIC drug A=MIC of drug A in combination/MIC of drug A alone and FIC of drug B=MIC of drug B in combination/MIC of drug B alone. Synergy was defined as FIC index ≦0.5, additivity/indifference defined as an FIC of between 0.5 and 4 and antagonism defined as an FIC index >4.

[3] = tested on: P. mirabilis; test: MIC, agent alone (broth microdilution); type: cell-based, Proteus mirabilis; conditions: footnote to Table 12; P. mirabilis 80267 and 81569
Text: as §5

[4] = tested on: MRSA, VISA, VRSA and E. coli; test: MIC, agent alone, panel statement; type: cell-based; conditions: CA-MRSA and HA-MRSA (checkerboard strains of Table 11)
Protocol: VISA (strains 92, 95 and 96), VRSA (strains 105 and 106) and E. coli (strain 69717) isolates were also tested. One MSSA was used as a control. All MICs were assessed using CLSI guidelines. Also assessed was the activity of cefazolin, ceftriazone, meropenem, and a piperacillin/tazobactam combination antibiotic. Minimum inhibitory concentration (MIC) is the lowest concentration of an antimicrobial that will inhibit the visible growth of a microorganism after incubation.
Antimicrobial Susceptibility Testing: A custom designed panel of antimicrobials was created. The panel included: PEP35, penicillin, piperacillin/tazobactam, cefazolin, ceftriaxone, meropenem, clarithromycin, clindamycin, gentamicin, amikacin, vancomycin, ciprofloxacin, levofloxacin, moxifloxacin, linezolid, trimethoprim/sulfamethoxazole and doxycycline. These agents were obtained as laboratory grade powders from their respective manufacturers. Stock solutions were prepared and dilutions made as described by the Clinical Laboratory Standards Institute (2005 CLSI). Following two subcultures from frozen stock the MICs of the antimicrobial agents for the isolates were determined by the CLSI 2005 approved broth macrodilution method. Briefly, test tubes containing doubling antibiotic dilutions (2 ml per tube) of cation adjusted Mueller-Hinton broth (eg. for Enterobacteriaceae) with or without lysed horse blood (2-5% V/V) [eg. for S. pneumoniae] were inoculated to achieve a final concentration of approximately 5×10^5 CFU/ml and incubated in ambient air for 24 hours prior to reading. Colony counts were performed periodically to confirm inocula. Quality control was performed every two weeks using a variety of ATCC QC organisms including; S. aureus 29213, E. faecalis 29212, E. coli 25922 and P. aeruginosa 27853. For all antimicrobials as well as PEP35, CLSI criteria were used.

[5] = tested on: Gram-negative bacilli; test: Checkerboard assay, panel statement; type: cell-based; conditions: with gentamicin, levofloxacin, piperacillin-tazobactam, meropenem and colistin; all Gram-negative bacilli tested
Protocol: as §1, §2, §3, §4
as §5, with “Gram-negative bacilli tested (2 strains of each) included: E. coli, Pseudomonas aeruginosa, Klebsiella pneumoniae, K. oxytoca, Enterobacter cloacae, P. mirabilis and Stenotrophomonas maltophilia.” left out

[6] = with cefazolin and ceftriaxone, versus CA-MRSA, HA-MRSA, VISA and VRSA
[7] = with meropenem versus CA-MRSA, HA-MRSA, and VISA

Molecule	Avg ΣFIC (range) ([1]; E. cloacae 80194)	Avg ΣFIC (range) ([1]; E. cloacae 83128)	synergy (in words) [2, 6]	synergy (in words) [2, 7]	MIC [3]	MIC alone, range [4] [µg/mL]	interaction (in words) [5]
C[C@@H](O)[C@H]1C(=O)N2C(C(=O)O)=C(S[C@@H]3CN[C@H](C(=O)N(C)C)C3)[C@H](C)[C@H]12 [Meropenem]	1.32 (1.03-2.12)	1.05 (0.75-1.25)	–	–	–	–	–
KKKKKLQLQLNLIKKKVQVSVVVVRRH (Reordered human peptide sequence) [Scrambled PEP35]	–	–	synergistic effect	synergistic effect	–	–	–
LKQKIKHVVKLKVVVKLRSQLVKRKQN (listed as Mus sp.) [PEP35]	–	–	synergistic effect	synergistic effect	*PEP35 MIC > 4096	512 to 1024	did not demonstrate antagonism or synergy; also recorded: additive
piperacillin/tazobactam	0.79 (0.5-1.06)	0.71 (0.37-1.06)	–	–	–	–	–
